According to US12648943B2, “Treatment of adrenocortical carcinoma with selective glucocorticoid receptor modulators (SGRMs) and antibody checkpoint inhibitors” (Corcept Therapeutics Incorporated, priority 2020, dated 2026):
Entries after “also recorded” stand apart in the source; their conditions may differ.

Tests used:
K562 tumor cells = assay: K562 tumor cell killing by human NK cells in vitro; format: cell-based; settings: for Tumor cell killing by NK cells at 5:1 ratio: 5:1 effector:tumor cell ratio, Mann-Whitney p=0.004; for Tumor cell killing by NK cells: various NK:tumor cell ratios, cortisol alone or cortisol plus relacorilant
Protocol: Activation, proliferation, and cytokine secretion are all indicative of a functional change in NK cells mediated by cortisol and relacorilant. To determine if this functional change also affected target cell killing, NK cells were incubated with K562 tumor cells. At various NK:tumor cell ratios, cortisol suppressed tumor cell killing and relacorilant restored it (FIG. 13A). […] Thus, glucocorticoids suppress tumor cell killing by human NK cells in vitro.

human NK cells [1] = assay: Gene expression in isolated human NK cells stimulated with IL-2; format: cell-based; settings: for Expression of IL2RA (IL2 receptor) / Expression of LAG3 / Transcription of IFNG (IFNγ): IL-2 stimulated human NK cells; for Expression of IL2RA (IL2 receptor) / Expression of LAG3 / Transcription of IFNG (IFNγ) / Expression of 4-1BB (CD137 tnfrsf9): cortisol alone or cortisol plus relacorilant; for Expression of 4-1BB (CD137 tnfrsf9): stimulated human NK cells
Protocol: (§1) Given the prominent suppression of NK related genes in GC+ cases, the direct effects of GR modulation of human NK cells were assessed. NK cells were isolated from healthy donors and stimulated with IL-2. Activation (abundance of CD25+CD69+ cells) was increased by stimulation, suppressed by cortisol, and restored by relacorilant (Mann-Whitney p=0.0039) (FIG. 11A). […] (FIG. 12D).

human NK cells [2] = assay: Activation of isolated human NK cells stimulated with IL-2 (CD25+CD69+ cells); format: cell-based; settings: NK cells from healthy donors, IL-2 stimulated; cortisol alone or cortisol plus relacorilant; Mann-Whitney p=0.0039
Protocol: as §1

human NK cells [3] = assay: Cytokine secretion by isolated human NK cells stimulated with IL-2; format: cell-based; settings: for Cytokine secretion (both transcript and secreted protein): cortisol alone or cortisol plus relacorilant
Protocol: as §1

human NK cells [4] = assay: Proliferation of isolated human NK cells stimulated with IL-2; format: cell-based; settings: NK cells from healthy donors, IL-2 stimulated; cortisol alone or cortisol plus relacorilant; Mann-Whitney p=0.0099
Protocol: as §1

[5] = tested on: tyrosine aminotransferase (TAT) in HepG2 cells; settings: cited from earlier work
[6] = IL-2 stimulated human NK cells, relacorilant relative to cortisol alone

SMILES | Tumor cell killing by NK cells at 5:1 ratio (K562 tumor cells) | Tumor cell killing by NK cells (K562 tumor cells) | Expression of IL2RA (IL2 receptor) (human NK cells [1]) | Expression of LAG3 (human NK cells [1]) | Transcription of IFNG (IFNγ) (human NK cells [1]) | Expression of chemokine ligand 3-like 1 (ccl3l1) (human NK cells [1]; stimulated NK cells) | Expression of 4-1BB (CD137 tnfrsf9) (human NK cells [1]) | NK cell activation (abundance of CD25+CD69+ cells) (human NK cells [2]) | Cytokine secretion (both transcript and secreted protein) (human NK cells [3]; IL-2 stimulated human NK cells) | interferon γ (IFNγ) secretion (human NK cells [3]; [6]) | Secretion of other effector cytokines (human NK cells [3]; human NK cells) | Proliferation of NK cells (human NK cells [4]) | Activity of tyrosine aminotransferase (TAT) [5] | Granzyme A secretion (human NK cells [3]; [6]) | tumor necrosis factor (TNFα) secretion (human NK cells [3]; [6])
C[C@]12CCC(=O)C=C1CC[C@@H]1[C@@H]2[C@@H](O)C[C@@]2(C)[C@H]1CC[C@]2(O)C(=O)CO [cortisol, reference compound] | significant decrease | suppressed | suppressed | suppressed | suppressed | suppressed | suppressed | suppressed | suppressed | suppressed | suppressed | suppressed | – | – | –
CC#C[C@]1(O)CC[C@H]2[C@@H]3CCC4=CC(=O)CCC4=C3[C@@H](c3ccc(N(C)C)cc3)C[C@@]21C [mifepristone] | – | – | – | – | – | – | – | – | – | – | – | – | decreases | – | –
Cn1cc(S(=O)(=O)N2CCC3=Cc4c(cnn4-c4ccc(F)cc4)C[C@]3(C(=O)c3cc(C(F)(F)F)ccn3)C2)cn1 [relacorilant, (R)-(1-(4-fluorophenyl)-6-((1-methyl-1H-pyrazol-4-yl)sulfonyl)-4,4a,5,6,7,8-hexahydro-1H-pyrazolo[3,4-g]isoquinolin-4a-yl)(4-(trifluoromethyl)pyridin-2-yl)methanone] | significant improvement; also recorded: counteracted | restore; also recorded: counteracted | restored; also recorded: improved | restored; also recorded: promoted; also recorded: improved | improved | – | promoted | restore; also recorded: significantly improved | restored | improved | – | restore; also recorded: significantly improved | – | improved | improved
